# PubChem BioAssay AID1963971 (Molecular Pharmacology Branch, DTP, NCI, 2024)
# Tested on: 953936-095-R-J2-PDC spheroids with HUVEC/MSC, viability
# Assay: Anticancer human tumor 953936-095-R-J2-PDC patient-derived cervical squamous cell carcinoma cell line growth inhibition [PI3K]
# Details: for IC50: curve of first compound; for viability, T/C: stronger effect = lower value
# In short: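 Three cell types, namely tumor cells, endothelial cells and mesenchymal stem cells, formed each spheroid. Combinations with four PI3K inhibitors were screened at clinically achievable concentrations decreasing by half-log, and spheroid viability was recorded.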
# [1] = second compound 0.00316 µM, first compound 0.0316 µM
# [2] = second compound 0.00316 µM, first compound 0.1 µM
# [3] = second compound 0.00316 µM, first compound 0.316 µM
# [4] = second compound 0.00316 µM, first compound 1 µM
# [5] = second compound 0.00316 µM, first compound 3.16 µM
# [6] = second compound 0.00316 µM, first compound 10 µM
# [7] = second compound 0.01 µM, first compound 0.0316 µM
# [8] = second compound 0.01 µM, first compound 0.1 µM
# [9] = second compound 0.01 µM, first compound 0.316 µM
# [10] = second compound 0.01 µM, first compound 1 µM
# [11] = second compound 0.01 µM, first compound 3.16 µM
# [12] = second compound 0.01 µM, first compound 10 µM
# [13] = second compound 0.0316 µM, first compound 0.0316 µM
# [14] = second compound 0.0316 µM, first compound 0.1 µM
# [15] = second compound 0.0316 µM, first compound 0.316 µM
# [16] = second compound 0.0316 µM, first compound 1 µM
# [17] = second compound 0.0316 µM, first compound 3.16 µM
# [18] = second compound 0.0316 µM, first compound 10 µM
# [19] = second compound 0.1 µM, first compound 0.0316 µM
# [20] = second compound 0.1 µM, first compound 0.1 µM
# [21] = second compound 0.1 µM, first compound 0.316 µM
# [22] = second compound 0.1 µM, first compound 1 µM
# [23] = second compound 0.1 µM, first compound 3.16 µM
# [24] = second compound 0.1 µM, first compound 10 µM
# [25] = second compound 0.316 µM, first compound 0.0316 µM
# [26] = second compound 0.316 µM, first compound 0.1 µM
# [27] = second compound 0.316 µM, first compound 0.316 µM
# [28] = second compound 0.316 µM, first compound 1 µM
# [29] = second compound 0.316 µM, first compound 3.16 µM
# [30] = second compound 0.316 µM, first compound 10 µM
# [31] = second compound 1 µM, first compound 0.0316 µM
# [32] = second compound 1 µM, first compound 0.1 µM
# [33] = second compound 1 µM, first compound 0.316 µM
# [34] = second compound 1 µM, first compound 1 µM
# [35] = second compound 1 µM, first compound 3.16 µM
# [36] = second compound 1 µM, first compound 10 µM
# 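Note: spheroids exposed to compounds for seven days before read-out.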
smiles,measurement,setting,value
CC1(C)CCC(CN2CCN(c3ccc(C(=O)NS(=O)(=O)c4ccc(NCC5CCOCC5)c([N+](=O)[O-])c4)c(Oc4cnc5[nH]ccc5c4)c3)CC2)=C(c2ccc(Cl)cc2)C1 + COc1c(OCCCN2CCOCC2)ccc2c3n(c(=NC(=O)c4cnc(N)nc4)nc12)CCN3,IC50,second compound 0.00316 µM,7150 nM
same,IC50,second compound 0.01 µM,5430 nM
same,IC50,second compound 0.0316 µM,< 31.6 nM
same,IC50,second compound 0.1 µM,< 31.6 nM
same,IC50,second compound 0.316 µM,< 31.6 nM
same,IC50,second compound 1 µM,< 31.6 nM
same,"viability, T/C",[1],82%
same,"viability, T/C",[2],84.2%
same,"viability, T/C",[3],93.8%
same,"viability, T/C",[4],96.2%
same,"viability, T/C",[5],97.5%
same,"viability, T/C",[6],33.2%
same,"viability, T/C",[7],69.6%
same,"viability, T/C",[8],78.1%
same,"viability, T/C",[9],68%
same,"viability, T/C",[10],74.7%
same,"viability, T/C",[11],70.5%
same,"viability, T/C",[12],26.6%
same,"viability, T/C",[13],42%
same,"viability, T/C",[14],50%
same,"viability, T/C",[15],41.5%
same,"viability, T/C",[16],40.1%
same,"viability, T/C",[17],44.1%
same,"viability, T/C",[18],21.6%
same,"viability, T/C",[19],18.2%
same,"viability, T/C",[20],17.8%
same,"viability, T/C",[21],18.3%
same,"viability, T/C",[22],17.1%
same,"viability, T/C",[23],15.6%
same,"viability, T/C",[24],6.6%
same,"viability, T/C",[25],6.6%
same,"viability, T/C",[26],7.22%
same,"viability, T/C",[27],7.33%
same,"viability, T/C",[28],5.61%
same,"viability, T/C",[29],5.63%
same,"viability, T/C",[30],3.88%
same,"viability, T/C",[31],1.61%
same,"viability, T/C",[32],1.39%
same,"viability, T/C",[33],1.49%
same,"viability, T/C",[34],1.3%
same,"viability, T/C",[35],1.52%
same,"viability, T/C",[36],0.86%
C[C@@H](NC(=O)c1ncnc(N)c1Cl)c1ncc(C(=O)Nc2cc(C(F)(F)F)c(Cl)cn2)s1 + COc1c(OCCCN2CCOCC2)ccc2c3n(c(=NC(=O)c4cnc(N)nc4)nc12)CCN3,IC50,second compound 0.00316 µM,> 10000 nM
same,IC50,second compound 0.01 µM,> 10000 nM
same,IC50,second compound 0.0316 µM,< 31.6 nM
same,IC50,second compound 0.1 µM,< 31.6 nM
same,IC50,second compound 0.316 µM,< 31.6 nM
same,IC50,second compound 1 µM,< 31.6 nM
same,"viability, T/C",[1],89.7%
same,"viability, T/C",[2],91.8%
same,"viability, T/C",[3],88.7%
same,"viability, T/C",[4],104%
same,"viability, T/C",[5],110%
same,"viability, T/C",[6],106%
same,"viability, T/C",[7],73.7%
same,"viability, T/C",[8],77.9%
same,"viability, T/C",[9],84.7%
same,"viability, T/C",[10],86.9%
same,"viability, T/C",[11],85.5%
same,"viability, T/C",[12],77.3%
same,"viability, T/C",[13],40.9%
same,"viability, T/C",[14],50%
same,"viability, T/C",[15],48.1%
same,"viability, T/C",[16],49.7%
same,"viability, T/C",[17],54.9%
same,"viability, T/C",[18],48.7%
same,"viability, T/C",[19],19.3%
same,"viability, T/C",[20],22%
same,"viability, T/C",[21],22.8%
same,"viability, T/C",[22],21.9%
same,"viability, T/C",[23],23%
same,"viability, T/C",[24],20.7%
same,"viability, T/C",[25],7.52%
same,"viability, T/C",[26],8.48%
same,"viability, T/C",[27],7.48%
same,"viability, T/C",[28],9.8%
same,"viability, T/C",[29],10.3%
same,"viability, T/C",[30],7.69%
same,"viability, T/C",[31],1.88%
same,"viability, T/C",[32],2.05%
same,"viability, T/C",[33],2.83%
same,"viability, T/C",[34],2.99%
same,"viability, T/C",[35],3.46%
same,"viability, T/C",[36],3.33%
Cn1ncnc1[C@H]1c2n[nH]c(=O)c3cc(F)cc(c23)N[C@@H]1c1ccc(F)cc1 + COc1c(OCCCN2CCOCC2)ccc2c3n(c(=NC(=O)c4cnc(N)nc4)nc12)CCN3,IC50,second compound 0.00316 µM,> 100 nM
same,IC50,second compound 0.01 µM,> 100 nM
same,IC50,second compound 0.0316 µM,< 0.316 nM
same,IC50,second compound 0.1 µM,< 0.316 nM
same,IC50,second compound 0.316 µM,< 0.316 nM
same,IC50,second compound 1 µM,< 0.316 nM
same,"viability, T/C","second compound 0.00316 µM, first compound 0.000316 µM",83%
same,"viability, T/C","second compound 0.00316 µM, first compound 0.001 µM",102%
same,"viability, T/C","second compound 0.00316 µM, first compound 0.00316 µM",93.9%
same,"viability, T/C","second compound 0.00316 µM, first compound 0.01 µM",85.2%
same,"viability, T/C",[1],81.6%
same,"viability, T/C",[2],78.5%
same,"viability, T/C","second compound 0.01 µM, first compound 0.000316 µM",71%
same,"viability, T/C","second compound 0.01 µM, first compound 0.001 µM",85.1%
same,"viability, T/C","second compound 0.01 µM, first compound 0.00316 µM",81.1%
same,"viability, T/C","second compound 0.01 µM, first compound 0.01 µM",72.1%
same,"viability, T/C",[7],67.3%
same,"viability, T/C",[8],68.2%
same,"viability, T/C","second compound 0.0316 µM, first compound 0.000316 µM",44.6%
same,"viability, T/C","second compound 0.0316 µM, first compound 0.001 µM",39.1%
same,"viability, T/C","second compound 0.0316 µM, first compound 0.00316 µM",41%
same,"viability, T/C","second compound 0.0316 µM, first compound 0.01 µM",43%
same,"viability, T/C",[13],39.3%
same,"viability, T/C",[14],35.8%
same,"viability, T/C","second compound 0.1 µM, first compound 0.000316 µM",19%
same,"viability, T/C","second compound 0.1 µM, first compound 0.001 µM",18.1%
same,"viability, T/C","second compound 0.1 µM, first compound 0.00316 µM",18.2%
same,"viability, T/C","second compound 0.1 µM, first compound 0.01 µM",18.9%
same,"viability, T/C",[19],19.9%
same,"viability, T/C",[20],17.4%
same,"viability, T/C","second compound 0.316 µM, first compound 0.000316 µM",6.63%
same,"viability, T/C","second compound 0.316 µM, first compound 0.001 µM",6.64%
same,"viability, T/C","second compound 0.316 µM, first compound 0.00316 µM",7.07%
same,"viability, T/C","second compound 0.316 µM, first compound 0.01 µM",7.8%
same,"viability, T/C",[25],6.66%
same,"viability, T/C",[26],5.37%
same,"viability, T/C","second compound 1 µM, first compound 0.000316 µM",1.68%
same,"viability, T/C","second compound 1 µM, first compound 0.001 µM",1.6%
same,"viability, T/C","second compound 1 µM, first compound 0.00316 µM",1.91%
same,"viability, T/C","second compound 1 µM, first compound 0.01 µM",1.67%
same,"viability, T/C",[31],1.93%
same,"viability, T/C",[32],1.28%
